The experiment concerns HCT116. Nature of the experiment: In vitro cytotoxicity, cell colony formation assay. Type of experiment: cell-based. As to conditions: HCT116; 72 h with drug, colonies counted after 7 days; concentration producing 50% inhibition of colony formation; read-out: IN VITRO ID 50. Here is the method: In Vitro cytotoxicity measured by the cell colony formation assay
Four hundred cells (HCT116) were plated in 60 mm Petri dishes containing 2.7 mL of medium (modified McCoy's 5a medium containing 10% fetal bovine serum and 100 units/mL penicillin and […] streptomycin). The cells were incubated in a CO2 incubator at 37 °C for 5 h for attachment to the bottom of Petri dishes. The compounds identified in Example 2 were made up fresh in medium at ten times the final concentration, and then 0.3 mL of this stock solution was added to the 2.7 mL of medium in the dish. The cells were then incubated with drugs for 72 h at 37 ° C. At the end of incubation the drug-containing media were decanted, the dishes were rinsed with 4 mL of Hank's Balance Salt Solution (HBSS), 5 mL of fresh medium was added, and the dishes were returned to the incubator for colony formation. The cell colonies were counted using a colony counter after incubation for 7 days.
For `CCOC(=O)OC1C(=O)C2(C)C(O)CC3OCC3(OC(C)=O)C2C(OC(=O)c2ccccc2)C2(O)CC(OC(=O)C(O)C(NC(=O)OC(C)C)c3cccs3)C(C)=C1C2(C)C` (stereo not shown) [Compound 2999], the IC50 is < 1 nM.

Regarding `COC(=O)OC1C(=O)C2(C)C(O)CC3OCC3(OC(C)=O)C2C(OC(=O)c2ccccc2)C2(O)CC(OC(=O)C(O)C(NC(=O)OC(C)(C)C)c3cccnc3)C(C)=C1C2(C)C` (stereo not shown) [Compound 2011], the IC50 was < 10 nM.

Turning to `COC(=O)OC1C(=O)C2(C)C(O)CC3OCC3(OC(C)=O)C2C(OC(=O)c2ccccc2)C2(O)CC(OC(=O)C(O)C(NC(=O)OC(C)(C)C)C(C)C)C(C)=C1C2(C)C` (stereo not shown) [Compound 2062], the IC50 was < 10 nM.

`CCOC(=O)OC1C(=O)C2(C)C(O)CC3OCC3(OC(C)=O)C2C(OC(=O)c2ccccc2)C2(O)CC(OC(=O)C(O)C(NC(=O)c3ccccc3)c3ccco3)C(C)=C1C2(C)C` (stereo not shown) [Compound 4090]: the IC50 is < 1 nM.

For `CCOC(=O)OC1C(=O)C2(C)C(O)CC3OCC3(OC(C)=O)C2C(OC(=O)c2ccccc2)C2(O)CC(OC(=O)C(O)C(NC(=O)c3ccco3)c3cccs3)C(C)=C1C2(C)C` (stereo not shown) [Compound 3011], the IC50 was < 1 nM.

`CCOC(=O)OC1C(=O)C2(C)C(O)CC3OCC3(OC(C)=O)C2C(OC(=O)c2ccccc2)C2(O)CC(OC(=O)C(O)C(NC(=O)OC(C)(C)C)c3ccncc3)C(C)=C1C2(C)C` (stereo not shown) [Compound 1811]: the IC50 was < 1 nM.

As to `CCCC(=O)NC(c1ccco1)C(O)C(=O)OC1CC2(O)C(OC(=O)c3ccccc3)C3C4(OC(C)=O)COC4CC(O)C3(C)C(=O)C(OC(=O)OCC)C(=C1C)C2(C)C` (stereo not shown) [Compound 3929], the IC50 was < 1 nM.

Regarding `COC(=O)OC1C(=O)C2(C)C(O)CC3OCC3(OC(C)=O)C2C(OC(=O)c2ccccc2)C2(O)CC(OC(=O)C(O)C(NC(=O)OC(C)(C)C)c3ccc([N+](=O)[O-])cc3)C(C)=C1C2(C)C` (stereo not shown) [Compound 2088], the IC50 is < 1 nM.

`CCOC(=O)OC1C(=O)C2(C)C(O)CC3OCC3(OC(C)=O)C2C(OC(=O)c2ccccc2)C2(O)CC(OC(=O)C(O)C(NC(=O)OC(C)(C)C)c3ccccn3)C(C)=C1C2(C)C` (stereo not shown) [Compound 1799]: the IC50 was < 1 nM.

In the case of `CCOC(=O)OC1C(=O)C2(C)C(O)CC3OCC3(OC(C)=O)C2C(OC(=O)c2ccccc2)C2(O)CC(OC(=O)C(O)C(NC(=O)OC(C)(C)C)c3ccsc3)C(C)=C1C2(C)C` (stereo not shown) [Compound 1841], the IC50 was < 1 nM.

Turning to `CCOC(=O)OC1C(=O)C2(C)C(O)CC3OCC3(OC(C)=O)C2C(OC(=O)c2ccccc2)C2(O)CC(OC(=O)C(O)C(NC(=O)c3ccccc3)c3cccs3)C(C)=C1C2(C)C` (stereo not shown) [Compound 2972], the IC50 was < 10 nM.

For `CCOC(=O)OC1C(=O)C2(C)C(O)CC3OCC3(OC(C)=O)C2C(OC(=O)c2ccccc2)C2(O)CC(OC(=O)C(O)C(NC(=O)c3cccs3)c3cccs3)C(C)=C1C2(C)C` (stereo not shown) [Compound 3020], the IC50 was < 1 nM.

In the case of `CCOC(=O)OC1C(=O)C2(C)C(O)CC3OCC3(OC(C)=O)C2C(OC(=O)c2ccccc2)C2(O)CC(OC(=O)C(O)C(NC(=O)OC(C)(C)C)c3ccco3)C(C)=C1C2(C)C` (stereo not shown) [Compound 1822], the IC50 is < 1 nM.

Take `COC(=O)OC1C(=O)C2(C)C(O)CC3OCC3(OC(C)=O)C2C(OC(=O)c2ccccc2)C2(O)CC(OC(=O)C(O)C(NC(=O)OC(C)(C)C)C3CCC3)C(C)=C1C2(C)C` (stereo not shown) [Compound 2077]: the IC50 is < 10 nM.

Take `CCOC(=O)OC1C(=O)C2(C)C(O)CC3OCC3(OC(C)=O)C2C(OC(=O)c2ccccc2)C2(O)CC(OC(=O)C(O)C(NC(=O)C(C)C)c3ccco3)C(C)=C1C2(C)C` (stereo not shown) [Compound 6466]: the IC50 is < 10 nM.

Regarding `CCOC(=O)OC1C(=O)C2(C)C(O)CC3OCC3(OC(C)=O)C2C(OC(=O)c2ccccc2)C2(O)CC(OC(=O)C(O)C(NC(=O)OC(C)(C)C)C3CC3)C(C)=C1C2(C)C` (stereo not shown) [Compound 5171], the IC50 is < 1 nM.

In the case of `CCOC(=O)OC1C(=O)C2(C)C(O)CC3OCC3(OC(C)=O)C2C(OC(=O)c2ccccc2)C2(O)CC(OC(=O)C(O)C(NC(=O)OCC(C)C)c3ccco3)C(C)=C1C2(C)C` (stereo not shown) [Compound 3181], the IC50 was < 1 nM.

With `CC=CC(=O)NC(c1ccco1)C(O)C(=O)OC1CC2(O)C(OC(=O)c3ccccc3)C3C4(OC(C)=O)COC4CC(O)C3(C)C(=O)C(OC(=O)OCC)C(=C1C)C2(C)C` (stereo not shown) [Compound 4000], the IC50 was < 1 nM.

Consider `COC(=O)OC1C(=O)C2(C)C(O)CC3OCC3(OC(C)=O)C2C(OC(=O)c2ccccc2)C2(O)CC(OC(=O)C(O)C(NC(=O)OC(C)(C)C)c3ccncc3)C(C)=C1C2(C)C` (stereo not shown) [Compound 2020], for which the IC50 is < 1 nM.

With `COC(=O)OC1C(=O)C2(C)C(O)CC3OCC3(OC(C)=O)C2C(OC(=O)c2ccccc2)C2(O)CC(OC(=O)C(O)C(NC(=O)OC(C)(C)C)c3cccs3)C(C)=C1C2(C)C` (stereo not shown) [Compound 2044], the IC50 is < 1 nM.

In the case of `CCOC(=O)OC1C(=O)C2(C)C(O)CC3OCC3(OC(C)=O)C2C(OC(=O)c2ccccc2)C2(O)CC(OC(=O)C(O)C(NC(=O)OC(C)(C)C)c3cccnc3)C(C)=C1C2(C)C` (stereo not shown) [Compound 1808], the IC50 was < 10 nM.

Regarding `COC(=O)OC1C(=O)C2(C)C(O)CC3OCC3(OC(C)=O)C2C(OC(=O)c2ccccc2)C2(O)CC(OC(=O)C(O)C(NC(=O)OC(C)(C)C)c3ccsc3)C(C)=C1C2(C)C` (stereo not shown) [Compound 2050], the IC50 is < 1 nM.

With `CCOC(=O)OC1C(=O)C2(C)C(O)CC3OCC3(OC(C)=O)C2C(OC(=O)c2ccccc2)C2(O)CC(OC(=O)C(O)C(C=C(C)C)NC(=O)OCC(C)C)C(C)=C1C2(C)C` (stereo not shown) [Compound 5155], the IC50 is < 10 nM.

Turning to `CCOC(=O)OC1C(=O)C2(C)C(O)CC3OCC3(OC(C)=O)C2C(OC(=O)c2ccccc2)C2(O)CC(OC(=O)C(O)C(NC(=O)OC(C)C)c3ccco3)C(C)=C1C2(C)C` (stereo not shown) [Compound 3963], the IC50 is < 1 nM.

Turning to `CCOC(=O)OC1C(=O)C2(C)C(O)CC3OCC3(OC(C)=O)C2C(OC(=O)c2ccccc2)C2(O)CC(OC(=O)C(O)C(NC(=O)c3ccccn3)c3cccs3)C(C)=C1C2(C)C` (stereo not shown) [Compound 3433], the IC50 turned out to be 22.3 nM.

Consider `COC(=O)OC1C(=O)C2(C)C(O)CC3OCC3(OC(C)=O)C2C(OC(=O)c2ccccc2)C2(O)CC(OC(=O)C(O)C(NC(=O)OC(C)(C)C)c3ccccc3)C(C)=C1C2(C)C` (stereo not shown) [Compound 2092], for which the IC50 was < 1 nM.

`CCOC(=O)OC1C(=O)C2(C)C(O)CC3OCC3(OC(C)=O)C2C(OC(=O)c2ccccc2)C2(O)CC(OC(=O)C(O)C(NC(=O)c3cccnc3)c3cccs3)C(C)=C1C2(C)C` (stereo not shown) [Compound 3300]: the IC50 was < 10 nM.

Regarding `CCOC(=O)OC1C(=O)C2(C)C(O)CC3OCC3(OC(C)=O)C2C(OC(=O)c2ccccc2)C2(O)CC(OC(=O)C(O)C(C=C(C)C)NC(=O)OC(C)(C)C)C(C)=C1C2(C)C` (stereo not shown) [Compound 1788], the IC50 was < 1 nM.

With `CCOC(=O)OC1C(=O)C2(C)C(O)CC3OCC3(OC(C)=O)C2C(OC(=O)c2ccccc2)C2(O)CC(OC(=O)C(O)C(NC(=O)OC(C)(C)C)C3CCC3)C(C)=C1C2(C)C` (stereo not shown) [Compound 1855], the IC50 was < 10 nM.

For `CCCC(=O)NC(c1cccs1)C(O)C(=O)OC1CC2(O)C(OC(=O)c3ccccc3)C3C4(OC(C)=O)COC4CC(O)C3(C)C(=O)C(OC(=O)OCC)C(=C1C)C2(C)C` (stereo not shown) [Compound 3155], the IC50 is < 1 nM.

On to `COC(=O)OC1C(=O)C2(C)C(O)CC3OCC3(OC(C)=O)C2C(OC(=O)c2ccccc2)C2(O)CC(OC(=O)C(O)C(NC(=O)OC(C)(C)C)c3ccccn3)C(C)=C1C2(C)C` (stereo not shown) [Compound 2002], for which the IC50 was < 1 nM.
